Measured values taken from patent publication US7335632B2, “Beta-secretase inhibitors and methods of use thereof” (CoMentis, Inc., priority 2001, dated 2008).
Like-named read-outs stand apart in the source and are kept apart here.

Experiments:
Type in all cases: biochemical
[1] = target: memapsin 2 (Homo sapiens, UniProt P56817); test: Inhibition of memapsin 2 beta-secretase activity toward fluorogenic substrate FS-2; details: pH 4, 37° C., 20 minutes pre-incubation, substrate FS-2, tight-binding model; read-out: M2 Ki
Description: Potency of compounds were determined by measurement of their inhibition of memapsin 2 activity toward a fluorescent substrate. […] Briefly, assays were performed at pH 4, 37° C., by pre-incubation of memapsin 2 enzyme with compound for 20 minutes. Activity measure was initiated by addition of a fluorogenic substrate FS-2 (Bachem Americas, Torrance, Calif.). Fluorescent signal increase over time was measured as a rate of hydrolysis of the peptide substrate.

[2] = target: Cathepsin D (Homo sapiens, UniProt P07339); test: Inhibition of cathepsin D activity (substrate peptide […], MALDI-TOF); details: pH 4.1, 37 degrees C., read-out: Cath D Ki
[3] = target: T1, memapsin 1 (Homo sapiens, UniProt Q9Y5Z0); test: Inhibition of memapsin 1 beta-secretase activity (substrate peptide […], MALDI-TOF); details: pH 4.1, 37 degrees C., substrate NH3-ELDLAVEFWHDR-CO2, MALDI-TOF; read-out: M1 Ki
T1 sequence (Q9Y5Z0 63-518): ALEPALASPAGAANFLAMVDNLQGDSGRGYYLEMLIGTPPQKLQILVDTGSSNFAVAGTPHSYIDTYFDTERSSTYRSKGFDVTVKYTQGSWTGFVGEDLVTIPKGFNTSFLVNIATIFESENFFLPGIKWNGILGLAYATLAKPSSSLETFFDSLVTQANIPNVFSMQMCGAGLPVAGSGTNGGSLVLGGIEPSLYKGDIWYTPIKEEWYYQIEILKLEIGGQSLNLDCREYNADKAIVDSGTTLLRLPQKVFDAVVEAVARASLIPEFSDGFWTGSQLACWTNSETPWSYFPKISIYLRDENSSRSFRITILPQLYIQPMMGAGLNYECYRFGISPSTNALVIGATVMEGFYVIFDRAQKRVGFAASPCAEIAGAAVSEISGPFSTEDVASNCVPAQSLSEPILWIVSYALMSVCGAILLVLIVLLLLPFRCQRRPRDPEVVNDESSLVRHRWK

[4] = substrate NH3-[…]-CO2, MALDI-TOF

Chain of Cathepsin D (P07339 65-412, species assumed): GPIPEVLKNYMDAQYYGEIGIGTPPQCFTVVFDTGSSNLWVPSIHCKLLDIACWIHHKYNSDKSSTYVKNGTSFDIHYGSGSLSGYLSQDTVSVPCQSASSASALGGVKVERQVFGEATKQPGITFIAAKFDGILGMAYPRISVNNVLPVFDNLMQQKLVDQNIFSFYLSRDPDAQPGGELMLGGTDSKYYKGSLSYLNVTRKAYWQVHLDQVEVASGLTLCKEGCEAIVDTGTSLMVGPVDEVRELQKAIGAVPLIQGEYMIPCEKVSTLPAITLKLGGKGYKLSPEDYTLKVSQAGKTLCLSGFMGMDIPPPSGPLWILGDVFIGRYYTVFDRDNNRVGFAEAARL
Chain of memapsin 2 (P56817 46-501): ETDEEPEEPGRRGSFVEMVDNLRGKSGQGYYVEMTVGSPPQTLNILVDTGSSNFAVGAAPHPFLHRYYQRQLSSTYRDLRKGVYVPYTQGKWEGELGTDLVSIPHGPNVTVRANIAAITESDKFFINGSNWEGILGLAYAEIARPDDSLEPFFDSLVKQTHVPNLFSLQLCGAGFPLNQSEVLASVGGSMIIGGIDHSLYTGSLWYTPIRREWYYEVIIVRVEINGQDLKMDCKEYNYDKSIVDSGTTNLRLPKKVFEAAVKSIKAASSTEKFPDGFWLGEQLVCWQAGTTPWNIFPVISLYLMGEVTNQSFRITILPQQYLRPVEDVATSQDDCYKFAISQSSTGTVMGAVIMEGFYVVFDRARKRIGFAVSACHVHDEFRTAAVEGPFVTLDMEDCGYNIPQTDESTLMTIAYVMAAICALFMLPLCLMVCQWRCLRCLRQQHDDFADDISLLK

SMILES	Ki [1]	Ki [2, 4]	Ki [3]	Ki ([2]; substrate NH3-ELDLAVEFWHDR-CO2, MALDI-TOF)
CSC[C@H](NC(=O)OCc1nccn1C)C(=O)N[C@@H](CC(C)C)[C@@H](O)C[C@@H](C)C(=O)N[C@@H](C(=O)NCC(C)C)C(C)C [Structure 6]	> 1000 nM	100 to 1000 nM	< 100 nM	
C=CCSC[C@H](NC(=O)CCn1nc(C)cc1C)C(=O)N[C@@H](CC(C)C)[C@@H](O)C[C@@H](C)C(=O)N[C@H](C(=O)NCC(C)C)C(C)C [Structure 10]	< 100 nM	< 100 nM	< 100 nM	
CSC[C@H](NC(=O)CC(C)n1nc(C)cc1C)C(=O)N[C@@H](CC(C)C)[C@@H](O)C[C@@H](C)C(=O)N[C@H](C(=O)NCC(C)C)C(C)C (stereo partly drawn) [Structure 11]	> 1000 nM	< 100 nM	100 to 1000 nM	
COCSC[C@H](NC(=O)CCn1nc(C)cc1C)C(=O)N[C@H](CC(C)C)[C@@H](O)C[C@@H](C)C(=O)N[C@@H](C(=O)NCC(C)C)C(C)C [Structure 14]	< 100 nM	< 100 nM	< 100 nM	
COCS(=O)(=O)C[C@H](NC(=O)CCn1nc(C)cc1C)C(=O)N[C@H](CC(C)C)[C@@H](O)C[C@@H](C)C(=O)N[C@@H](C(=O)NCC(C)C)C(C)C [Structure 15]	100 to 1000 nM	100 to 1000 nM	100 to 1000 nM	
CC(C)CNC(=O)[C@H](NC(=O)[C@H](C)C[C@H](O)[C@@H](CC(C)C)NC(=O)[C@H](CS(C)(=O)=O)NC(=O)OCc1ccn(C)n1)C(C)C [Structure 20]	100 to 1000 nM	100 to 1000 nM	100 to 1000 nM	
CSC[C@H](NC(=O)OCc1csc(C)n1)C(=O)N[C@H](CC(C)C)[C@@H](O)C[C@@H](C)C(=O)N[C@@H](C(=O)NCC(C)C)C(C)C [Structure 21]	100 to 1000 nM	< 100 nM	100 to 1000 nM	
COCCOCSC[C@H](NC(=O)OCc1nc(C)cs1)C(=O)N[C@H](CC(C)C)[C@@H](O)C[C@@H](C)C(=O)N[C@@H](C(=O)NCC(C)C)C(C)C [Structure 23]	< 100 nM	< 100 nM	100 to 1000 nM	
CCS(=O)(=O)C[C@H](NC(=O)OCc1nc(C)c[s+]1[O-])C(=O)N[C@H](CC(C)C)[C@@H](O)C[C@@H](C)C(=O)N[C@@H](C(=O)NCC(C)C)C(C)C (stereo partly drawn) [Structure 24]	> 1000 nM	< 100 nM	100 to 1000 nM	
Cc1nc(COC(=O)N[C@@H](CS(C)(=O)=O)C(=O)N[C@H](CC(C)C)[C@@H](O)C[C@@H](C)C(=O)N[C@@H](C(=O)NCC(C)C)C(C)C)cs1 [Structure 25]	100 to 1000 nM	100 to 1000 nM	< 100 nM	
Cc1nc(COC(=O)N[C@@H](CS(C)(=O)=O)C(=O)N[C@H](CC(C)C)[C@@H](O)C[C@@H](C)C(=O)N[C@@H](C(=O)NCC(C)C)C(C)C)cs1 [Structure 26]			100 to 1000 nM	
CSC[C@H](NC(=O)OCc1coc(C)n1)C(=O)N[C@H](CC(C)C)[C@@H](O)C[C@@H](C)C(=O)N[C@@H](C(=O)NCC(C)C)C(C)C [Structure 27]	100 to 1000 nM	< 100 nM	100 to 1000 nM	
Cc1nc(COC(=O)N[C@@H](CS(C)(=O)=O)C(=O)N[C@H](CC(C)C)[C@@H](O)C[C@@H](C)C(=O)N[C@@H](C(=O)NCC(C)C)C(C)C)co1 [Structure 28]	100 to 1000 nM	100 to 1000 nM	100 to 1000 nM	
Cc1csc(COC(=O)N[C@@H](CS(C)(=O)=O)C(=O)N[C@H](CC(C)C)[C@@H](O)C[C@@H](C)C(=O)N[C@@H](C(=O)NCC(C)C)C2CCCCC2)n1 [Structure 33]	100 to 1000 nM	> 1000 nM	100 to 1000 nM	
CSC[C@H](NC(=O)CCc1nc(C)oc1C)C(=O)N[C@H](CC(C)C)[C@@H](O)C[C@@H](C)C(=O)N[C@@H](C(=O)NCC(C)C)C(C)C [Structure 41]	< 100 nM	< 100 nM	100 to 1000 nM	
Cc1nc(COC(=O)N[C@@H](CS(C)(=O)=O)C(=O)N[C@H](CC(C)C)[C@@H](O)C[C@@H](C)C(=O)NCC(C)C)c(C)o1 [Structure 42]	> 1000 nM		> 1000 nM	
Cc1nc(CCC(=O)N[C@@H](CS(C)(=O)=O)C(=O)N[C@H](CC(C)C)[C@@H](O)C[C@@H](C)C(=O)N[C@@H](C(=O)NCC(C)C)C(C)C)c(C)o1 [Structure 44]	< 100 nM	100 to 1000 nM	< 100 nM	
Cc1csc(COC(=O)N[C@@H](CS(C)(=O)=O)C(=O)N[C@H](CC(C)C)[C@@H](O)C[C@@H](C)C(=O)N[C@@H](C(=O)NCc2ccncc2)C(C)C)n1 [Structure 45]	100 to 1000 nM	100 to 1000 nM	> 1000 nM	
Cc1nc(COC(=O)N[C@@H](CS(C)(=O)=O)C(=O)N[C@H](Cc2ccccc2)[C@@H](O)C[C@@H](C)C(=O)N[C@@H](C(=O)NCC(C)C)C(C)C)c(C)o1 [Structure 51]	< 100 nM	< 100 nM	< 100 nM	
CSC[C@H](NC(=O)OCc1nc(C)cs1)C(=O)N[C@H](Cc1ccccc1)[C@@H](O)C[C@@H](C)C(=O)N[C@@H](C(=O)NCC(C)C)C(C)C [Structure 52]	< 100 nM	< 100 nM	100 to 1000 nM	
CSC[C@H](NC(=O)OCc1noc(C)n1)C(=O)N[C@H](CC(C)C)[C@@H](O)C[C@@H](C)C(=O)N[C@@H](C(=O)NCC(C)C)C(C)C [Structure 61]	100 to 1000 nM	< 100 nM	> 1000 nM	
Cc1nc(COC(=O)N[C@@H](CS(C)(=O)=O)C(=O)N[C@H](CC(C)C)[C@@H](O)C[C@@H](C)C(=O)N[C@@H](C(=O)NCC(C)C)C(C)C)no1 [Structure 62]	> 1000 nM	100 to 1000 nM	> 1000 nM	
Cc1csc(COC(=O)N[C@@H](CS(C)(=O)=O)C(=O)N[C@@H](CC(C)C)[C@@H](O)C[C@@H](C)C(=O)NN(C)S(C)(=O)=O)n1 [Structure 63]	> 1000 nM	> 1000 nM	> 1000 nM	
CSC[C@H](NC(=O)[C@@H](C)Cc1nc(C)cs1)C(=O)N[C@H](CC(C)C)[C@@H](O)C[C@@H](C)C(=O)N[C@@H](C(=O)NCC(C)C)C(C)C [Structure 65]	< 100 nM		< 100 nM	< 100 nM
Cc1noc(COC(=O)N[C@@H](CS(C)(=O)=O)C(=O)N[C@H](CC(C)C)[C@@H](O)C[C@@H](C)C(=O)N[C@@H](C(=O)NCC(C)C)C(C)C)n1 [Structure 69]	100 to 1000 nM	100 to 1000 nM	100 to 1000 nM	
CCc1nc(COC(=O)N[C@@H](CSC)C(=O)N[C@H](CC(C)C)[C@@H](O)C[C@@H](C)C(=O)N[C@@H](C(=O)NCC(C)C)C(C)C)c(C)s1 [Structure 70]	< 100 nM	< 100 nM	< 100 nM	
CSC[C@H](NC(=O)OCc1nc(C)cs1)C(=O)N[C@H](CC(C)C)[C@@H](O)C[C@@H](C)C(=O)NCC1CCC(C(=O)OCc2ccccc2)CC1 (stereo partly drawn) [Structure 76]	> 1000 nM	< 100 nM	> 1000 nM	
CSC[C@H](NC(=O)OCc1nc(C)cs1)C(=O)N[C@H](CC(C)C)[C@@H](O)C[C@@H](C)C(=O)N[C@@H](c1ncc[nH]1)C(C)C [Structure 80]	> 1000 nM	100 to 1000 nM	> 1000 nM	
CSC[C@H](NC(=O)OCc1nc(C)cs1)C(=O)N[C@H](CC(C)C)[C@@H](O)C[C@@H](C)C(=O)N[C@H](CN(C)C)C(=O)NC(C)C [Structure 81]	> 1000 nM	> 1000 nM	> 1000 nM	
Cc1csc(COC(=O)N[C@@H](CS(C)(=O)=O)C(=O)N[C@H](CC(C)C)[C@@H](O)C[C@@H](C)C(=O)NCC2CCC(C(=O)OCc3ccccc3)CC2)n1 (stereo partly drawn) [Structure 82]	> 1000 nM	< 100 nM	> 1000 nM	
